According to patent US4906621A, “Certain 2-carboxypiperidyl-alkylene phosphonic acids and esters thereof useful for the treatment of disorders responsive to N-methyl-D-aspartate receptor blockade” (Ciba-Geigy Corporation, priority 1987, dated 1990):

Experiments:
mongolian gerbil = mongolian gerbil ischemia model; assay type: in vivo; conditions: 10 mg/Kg ip, administered either before or after the ischemia episode
Text: The cerebral antiischemic activity, that is the effect of the compounds of the invention in preventing or reducing brain damage in mammals due to a transient cerebral ischemia (as in a stroke) can be determined in the mongolian gerbil ischemia model, e.g. the model described by T. Kirino, Brain Research 239, 57-69 (1982).
The inhibitory effect on the observed hyperactivity and on the degeneration of neurons in the hippocampus region of the brain following a 5-minute period of ischemia is measured.
The test compound is administered i.p. 15 minutes before the ischemia or 2, 4, and 6 hours post ischemia.

[1] = Cook/Davidson conflict model for anxiolytic activity; assay type: in vivo; conditions: ip; read-out: dose active in the Cook/Davidson test for anxiolytic activity
Text: Indicative of anxiolytic activity, compounds of the invention are effective in the Cook/Davidson conflict model (Psychopharmacologia 15, 159-168 (1969).

[2] = tested on: NMDA-type excitatory amino acid receptors; assay: inhibition of NMDA-evoked 3H-acetylcholine release from rat striatal tissue slices; assay type: cell-based; conditions: stimulation with 50 uM NMDA, read-out: IC50 in the in vitro NMDA-evoked 3H-ACh release test
Protocol: The inhibitory effect on the NMDA-type excitatory amino acid receptors is determined in vitro by measuring the inhibition of the NMDA-evoked ^3 H-acetylcholine (^3 H-ACh) release from corpus striatum tissue of rat brain, according to J. Lehmann and B. Scatton, Brain Research 252, 77-89 (1982) and Nature 297, 422-424 (1982).
Antagonists of NMDA-type excitatory amino acid receptors competitively antagonize NMDA-evoked ^3 H-acetylcholine (^3 H-ACh) release from corpus striatum tissue of the brain.
The inhibition of the NMDA-evoked ^3 H-acetylcholine (^3 H-ACh) release from rat striatal tissue slices by a compound of the invention is expressed as % of release of ^3 H-ACh in response to stimulation with 50 uM NMDA compared to control. Tests are two-tailed with a minimum of n=4 in each group. In IC50 values represent the concentration of test compound required to inhibit the NMDA-increased ^3 H-ACh release by 50%.

DBA/2 mice = assay: audiogenic-induced seizures in DBA/2 mice; assay type: in vivo; conditions: Mus musculus, ip, 0.75 h, i.p. administration, read-out: ED50 in the audiogenic-induced seizure model
Protocol: Further indicative of the anticonvulsant activity, compounds of the invention are effective in preventing audiogenic-induced seizures in DBA/2 mice (Chapman et al., Arzneim.-Forsch. 34:1261, 1984).
The effect is determined as follows:
Forty-five minutes following compound or vehicle administration, mice are placed individually in a soundproof chamber. After a 30 second accommodation period, the mice are exposed to a sound stimulation of 110 dB for 1 minute or until the appearance of a tonic-clonic seizure. Control seizures consist of an initial wild running phase. The prevention of wild running is indicative of an anticonvulsant effect.
Test compounds in either distilled water solution or in a 3% (w/v) colloidal cornstarch suspension containing 5% (w/v) polyethyleneglycol 400 and 0.34% (w/v) Tween 80, are administered by oral intubation or intraperitoneally in a volume of 10 ml/kg of body weight.

[3] = relative pharmacological activity of enantiomers (test not specified); conditions: enantiomers of the compound of Example 2

O=C(O)[C@H]1C[C@@H](CP(=O)(O)O)CCN1 (relative stereo) [cis-4-phosphonomethyl-2-piperidine-carboxylic acid]
effect on degeneration of cerebral neurons in the hippocampus region of the brain (mongolian gerbil): reduces the degeneration of cerebral neurons
effect on ischemia-induced hyperactivity of the gerbil (mongolian gerbil): inhibits the ischemia-induced hyperactivity
minimal effective dose [1]: ~2 mg/kg

O=C(O)[C@@H]1C[C@H](CP(=O)(O)O)CCN1 (relative stereo) [cis-4-phosphonomethyl-2-piperidinecarboxylic acid hyrdochloride]
IC50 [2]: ~8 µM
ED50 (DBA/2 mice): ~1.8 mg/kg

O=C(O)[C@H]1C[C@@H](CP(=O)(O)O)CCN1 (single isomer, unassigned) [(+)-cis-4-phosphonomethyl-2-piperidinecarboxylic acid]
pharmacological activity relative to the other enantiomer [3]: less active enantiomer

O=C(O)[C@H]1C[C@@H](CP(=O)(O)O)CCN1 (single isomer, unassigned) [(-)-cis-4-phosphonomethyl-2-piperidinecarboxylic acid]
pharmacological activity relative to the other enantiomer [3]: more active enantiomer
